Data: patent US9662388B2, “Methods and systems for treating cell proliferation disorders using plasmonics enhanced photospectral therapy (PEPST) and exciton-plasmon enhanced phototherapy (EPEP)” (Duke University, priority 2008, dated 2017)
Like-named read-outs stand apart in the source and are kept apart here. Non-standard residues stand in square brackets, D forms with d. Residues, ends and D or L forms follow the SMILES beside them. Bpa = N[CH](Cc1ccc(C(=O)c2ccccc2)cc1)C(=O)O; 2Nal = N[CH](Cc1ccc2ccccc2c1)C(=O)O; Aib = CC(C)(N)C(=O)O

How the values were obtained:
[1] = average over λex 224, 266, 280 nm
[2] = cited from earlier work

| SMILES | kSSET (Average) [1] [s⁻¹] | kSSET ([2]; λex 224 nm) [s⁻¹] | kSSET ([2]; λex 266 nm) [s⁻¹] | kSSET ([2]; λex 280 nm) [s⁻¹] |
| --- | --- | --- | --- | --- |
| CC(NC(=O)C(C)(C)NC(=O)C(Cc1ccc(C(=O)c2ccccc2)cc1)NC(=O)C(C)(C)NC(=O)C(Cc1ccc2ccccc2c1)NC(=O)C(C)(C)NC(=O)C(C)NC(=O)C(C)(C)N)C(=O)O (single isomer, unassigned) [Compound 2B] | 3.9e+07 | 3.1e+07 | 3.9e+07 | 4.7e+07 |
| CC1NC(=O)C(C)(C)NC(=O)C(Cc2ccc(C(=O)c3ccccc3)cc2)NC(=O)C(C)(C)NC(=O)C(C)NC(=O)C(C)(C)NC(=O)C(Cc2ccc3ccccc3c2)NC(=O)C(C)(C)NC1=O (centres unmarked) [Compound 1A] (cyclo([Aib][2Nal][Aib]A[Aib][Bpa][Aib]A); configuration not given here) | 3.67e+07 | 3.8e+07 | 3.6e+07 | 3.6e+07 |
| CC(NC(=O)C(C)(C)NC(=O)C(Cc1ccc(C(=O)c2ccccc2)cc1)NC(=O)C(C)(C)NC(=O)C(C)NC(=O)C(C)(C)NC(=O)C(Cc1ccc2ccccc2c1)NC(=O)C(C)(C)N)C(=O)O (centres unmarked) [Compound 1B] (H-[Aib][2Nal][Aib]A[Aib][Bpa][Aib]A-OH; configuration not given here) |  | 2.44e+08 | 1.8e+08 | 1.36e+08 |
